Patent US7396837B2, “Antitumoral analogs of lamellarins” (Pharma Mar, S.A.U., priority 2002, dated 2008)
Read-outs that look alike come from different tables or passages of the source.

Columns and labels:
Assay type in all cases: cell-based
[1] = test system: SK-BR-3; assay: SRB colorimetric cell growth inhibition assay, SK-BR-3; details: for GI50: GI=growth inhibition, read-out: GI50 SK-BR-3; for CC50: cell killing (cytotoxic effect), read-out: LC50 SK-BR-3
From the text: (§1) The finality of these assays is to interrupt the growth of an “in vitro” tumor cell culture by means a continued exhibition of the cells to the sample to be testing.
(§2) A colorimetric type of assay, using sulforhodamine B (SRB) reaction has been adapted for a quantitative measurement of cell growth and viability (following the technique described by P. A. Skehan, et al., J. Natl. Cancer Inst. 1990, 82, 1107-1112).
(§3) This form of assay employs 96 well cell culture microplates of 9 mm diameter (T. Mosmann et al., J. of Immunological Methods 1983, 65, 55-63; G. T. Faircloth et al., J. of Tissue and Culture Methods 1988, 11, 201-205).
(§4) Most of the cell lines are obtained from American Type Culture Collection (ATCC) derived from different human cancer types.
(§5) The values for mean +/− SD of data from triplicate wells are calculated. Some parameters for cellular responses can be calculated: GI=growth inhibition, TGI=total growth inhibition (cytostatic effect) and LC=cell killing (cytotoxic effect).

[2] = test system: LoVo-Dox; assay: SRB colorimetric cell growth inhibition assay, LoVo-Dox (MDR); details: LOVO-DOX; for GI50: GI=growth inhibition, read-out: GI50 LOVO-DOX
From the text: as §1, §2, §3, §4, §5

[3] = test system: DU-145; assay: SRB colorimetric cell growth inhibition assay, DU-145; details: for GI50: GI=growth inhibition, read-out: GI50 DU-145; for CC50: cell killing (cytotoxic effect), read-out: LC50 DU-145
From the text: as §1, §2, §3, §4, §5

[4] = test system: PANC-1; assay: SRB colorimetric cell growth inhibition assay, PANC-1; details: for GI50: GI=growth inhibition, read-out: GI50 PANC-1
From the text: as §1, §2, §3, §4, §5

[5] = test system: HT-29; assay: SRB colorimetric cell growth inhibition assay, HT-29; details: for GI50: GI=growth inhibition, read-out: GI50 HT-29
From the text: as §1, §2, §3, §4, §5

[6] = test system: IGROV-ET; assay: SRB colorimetric cell growth inhibition assay, IGROV-ET (ET-743 resistant); details: IGROV-ET; for GI50: GI=growth inhibition, read-out: GI50 IGROV-ET; for CC50: cell killing (cytotoxic effect), read-out: LC50 IGROV-ET
From the text: as §1, §2, §3, §4, §5

[7] = test system: HeLa-APL; assay: SRB colorimetric cell growth inhibition assay, HeLa-APL (aplidine resistant); details: Homo sapiens, HELA-APL; for GI50: GI=growth inhibition, read-out: GI50 HELA-APL; for CC50: cell killing (cytotoxic effect), read-out: LC50 HELA-APL; for IC (TGI): total growth inhibition (cytostatic effect), read-out: TGI HELA-APL
From the text: as §1, §2, §3, §4, §5

[8] = test system: A-549; assay: SRB colorimetric cell growth inhibition assay, A-549; details: for GI50: GI=growth inhibition, read-out: GI50 A-549
From the text: as §1, §2, §3, §4, §5

[9] = test system: HeLa; assay: SRB colorimetric cell growth inhibition assay, HeLa; details: Homo sapiens, HeLa; for GI50: GI=growth inhibition, read-out: GI50 HELA; for CC50: cell killing (cytotoxic effect), read-out: LC50 HELA; for IC (TGI): total growth inhibition (cytostatic effect), read-out: TGI HELA
From the text: as §1, §2, §3, §4, §5

[10] = test system: LoVo; assay: SRB colorimetric cell growth inhibition assay, LoVo; details: for GI50: GI=growth inhibition, read-out: GI50 LOVO
From the text: as §1, §2, §3, §4, §5

[11] = test system: IGROV; assay: SRB colorimetric cell growth inhibition assay, IGROV; details: IGROV; for GI50: GI=growth inhibition, read-out: GI50 IGROV; for CC50: cell killing (cytotoxic effect), read-out: LC50 IGROV
From the text: as §1, §2, §3, §4, §5

[12] = test system: SK-MEL-28; assay: SRB colorimetric cell growth inhibition assay, SK-MEL-28; details: for GI50: GI=growth inhibition, read-out: GI50 MEL-28; for CC50: cell killing (cytotoxic effect), read-out: LC50 MEL-28
From the text: as §1, §2, §3, §4, §5

[13] = Homo sapiens, SK-MEL-28, MEL-28
[14] = total growth inhibition (cytostatic effect)

CCCCCCCC(=O)Oc1ccc(-c2c3n(c4c(=O)oc5cc(OC(=O)CCCCCCC)c(OC)cc5c24)CCc2cc(OC(=O)CCCCCCC)c(OC)cc2-3)cc1OC [Compound 28]
GI50 ([1]; Homo sapiens, SK-BR-3, SK-BR-3): 0.941 µM | CC50 ([1]; Homo sapiens, SK-BR-3, SK-BR-3): 11.4 µM | IC (TGI) ([1]; Homo sapiens, SK-BR-3, SK-BR-3, total growth inhibition (cytostatic effect), read-out: TGI SK-BR-3): 4.73 µM | GI50 ([2]; Homo sapiens): 11.4 µM | CC50 ([2]; Homo sapiens, cell killing (cytotoxic effect), read-out: LC50 LOVO-DOX): 11.4 µM | IC (TGI) ([2]; Homo sapiens, total growth inhibition (cytostatic effect), read-out: TGI LOVO-DOX): 11.4 µM | GI50 ([3]; Homo sapiens, DU-145, DU-145): 0.315 µM | CC50 ([3]; Homo sapiens, DU-145, DU-145): 7.32 µM | IC (TGI) ([3]; Homo sapiens, DU-145, DU-145, total growth inhibition (cytostatic effect), read-out: TGI DU-145): 1.47 µM | GI50 ([4]; Homo sapiens, PANC-1, PANC-1): 1.91 µM | CC50 ([4]; Homo sapiens, PANC-1, PANC-1, cell killing (cytotoxic effect), read-out: LC50 PANC-1): 11.4 µM | IC (TGI) ([4]; Homo sapiens, PANC-1, PANC-1, total growth inhibition (cytostatic effect), read-out: TGI PANC-1): 11.4 µM | GI50 ([5]; Homo sapiens, HT-29, HT-29): 0.111 µM | CC50 ([5]; Homo sapiens, HT-29, HT-29, cell killing (cytotoxic effect), read-out: LC50 HT-29): 11.4 µM | IC (TGI) ([5]; Homo sapiens, HT-29, HT-29, total growth inhibition (cytostatic effect), read-out: TGI HT-29): 1.2 µM | GI50 ([6]; Homo sapiens): 11.4 µM | CC50 ([6]; Homo sapiens): 11.4 µM | IC (TGI) ([6]; Homo sapiens, total growth inhibition (cytostatic effect), read-out: TGI IGROV-ET): 11.4 µM | GI50 [7]: 9.53 µM | CC50 [7]: 11.4 µM | IC (TGI) [7]: 11.4 µM | GI50 ([8]; Homo sapiens, A549, A-549): 1.39 µM | CC50 ([8]; Homo sapiens, A549, A-549, cell killing (cytotoxic effect), read-out: LC50 A-549): 11.4 µM | IC (TGI) ([8]; Homo sapiens, A549, A-549, total growth inhibition (cytostatic effect), read-out: TGI A-549): 11.4 µM | GI50 [9]: 2.76 µM | CC50 [9]: 11.4 µM | IC (TGI) [9]: 9.24 µM | GI50 ([10]; Homo sapiens, LoVo): 0.634 µM | CC50 ([10]; Homo sapiens, LoVo, cell killing (cytotoxic effect), read-out: LC50 LOVO): 11.4 µM | IC (TGI) ([10]; Homo sapiens, LoVo, total growth inhibition (cytostatic effect), read-out: TGI LOVO): 5.16 µM | GI50 ([11]; Homo sapiens): 1.64 µM | CC50 ([11]; Homo sapiens): 9.61 µM | IC (TGI) ([11]; Homo sapiens, total growth inhibition (cytostatic effect), read-out: TGI IGROV): 3.97 µM | GI50 [12, 13]: 2.24 µM | CC50 [12, 13]: 11.4 µM | IC (TGI) ([12]; Homo sapiens, SK-MEL-28, MEL-28, total growth inhibition (cytostatic effect), read-out: TGI MEL-28): 7.28 µM

COc1cc2ccn3c(c(-c4ccc(OC(=O)[C@@H](N)C(C)C)c(OC)c4)c4c5cc(OC)c(OC(=O)[C@@H](N)C(C)C)cc5oc(=O)c43)c2cc1OC [Compound 14]
GI50 ([1]; SK-BR-3): 0.0424 µM | CC50 ([1]; SK-BR-3): 14 µM | TGI SK-BR-3 ([1]; SK-BR-3, total growth inhibition (cytostatic effect)): 9.88E−08 Molar | GI50 [2]: 0.497 µM | TGI LOVO-DOX [2, 14]: 1.45E−06 Molar | GI50 ([3]; DU-145): 0.517 µM | CC50 ([3]; DU-145): 14 µM | TGI DU-145 ([3]; DU-145, total growth inhibition (cytostatic effect)): 2.19E−06 Molar | GI50 ([4]; PANC-1): 1.18 µM | TGI PANC-1 ([4]; PANC-1, total growth inhibition (cytostatic effect)): 1.40E−05 Molar | GI50 ([5]; HT-29): 2.47 µM | TGI HT-29 ([5]; HT-29, total growth inhibition (cytostatic effect)): 7.26E−06 Molar | GI50 [6]: 0.745 µM | CC50 [6]: 14 µM | TGI IGROV-ET [6, 14]: 4.97E−06 Molar | GI50 [7]: 2.6 µM | CC50 [7]: 12.4 µM | IC (TGI) [7]: 12.1 µM | GI50 ([8]; A-549): 0.555 µM | TGI A-549 ([8]; A-549, total growth inhibition (cytostatic effect)): 1.40E−05 Molar | GI50 [9]: 1.83 µM | CC50 [9]: 12.4 µM | IC (TGI) [9]: 9.63 µM | GI50 ([10]; LOVO): 0.597 µM | TGI LOVO ([10]; LOVO, total growth inhibition (cytostatic effect)): 2.47E−06 Molar | GI50 [11]: 0.49 µM | CC50 [11]: 14 µM | TGI IGROV [11, 14]: 2.44E−06 Molar | GI50 ([12]; MEL-28): 1.42 µM | CC50 ([12]; MEL-28): 14 µM | TGI MEL-28 ([12]; MEL-28, total growth inhibition (cytostatic effect)): 1.40E−05 Molar
